What was measured:
Assay type in all cases: in vivo
[1] = system: barnyardgrass (Echinochloa crus-galli); test: Test A postemergence application, visual injury rating 0-100
Method in brief: (§1)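 Plants were grown in a loam soil-sand blend and treated with test chemical in a non-phytotoxic solvent mixture containing surfactant, either sprayed on soil preemergence or applied postemergence to 2-10 cm plants. After 10 days in a greenhouse, injury was scored visually against untreated controls, 0 meaning no effect and 100 complete control.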

[2] = system: ragweed (common ragweed, Ambrosia artemisiifolia); test: as above
Method in brief: as §1

[3] = system: corn (Zea mays); test: as above
Method in brief: as §1

[4] = system: horseweed (Erigeron canadensis); test: as above
Method in brief: as §1

[5] = system: oat, wild (wild oat, Avena fatua); test: as above
Method in brief: as §1

[6] = system: kochia (Bassia scoparia); test: as above
Method in brief: as §1

[7] = system: ryegrass, Italian (italian ryegrass, Lolium multiflorum); test: as above
Method in brief: as §1

[8] = system: palmer (palmer amaranth, palmer pigweed, Amaranthus palmeri); test: as above
Method in brief: as §1

[9] = system: green foxtail (Setaria viridis); test: as above
Method in brief: as §1

[10] = system: blackgrass (Alopecurus myosuroides); test: as above
Method in brief: as §1

[11] = system: galium (catchweed bedstraw, Galium aparine); test: as above; details: Postemergence, 16 g ai/ha, greenhouse 10 days; 0 no effect, 100 complete control
Method in brief: as §1

[12] = system: wheat (Triticum aestivum); test: as above
Method in brief: as §1

[13] = system: soybean (Glycine max); test: as above
Method in brief: as §1

[14] = system: barnyardgrass (Echinochloa crus-galli); test: Test A preemergence soil spray, visual injury rating 0-100; details: 10 days
Method in brief: as §1

[15] = system: ragweed (common ragweed, Ambrosia artemisiifolia); test: as above; details: 10 days
Method in brief: as §1

[16] = system: corn (Zea mays); test: as above; details: 10 days
Method in brief: as §1

[17] = system: oat, wild (wild oat, Avena fatua); test: as above; details: 10 days
Method in brief: as §1

[18] = system: kochia (Bassia scoparia); test: as above; details: 10 days
Method in brief: as §1

[19] = system: ryegrass, Italian (italian ryegrass, Lolium multiflorum); test: as above; details: 10 days
Method in brief: as §1

[20] = system: palmer (palmer amaranth, palmer pigweed, Amaranthus palmeri); test: as above; details: 10 days
Method in brief: as §1

[21] = system: green foxtail (Setaria viridis); test: as above; details: 10 days
Method in brief: as §1

[22] = system: blackgrass (Alopecurus myosuroides); test: as above; details: 10 days
Method in brief: as §1

[23] = system: wheat (Triticum aestivum); test: as above; details: 10 days
Method in brief: as §1

[24] = system: soybean (Glycine max); test: as above; details: 10 days
Method in brief: as §1

[25] = system: rice (Oryza sativa); test: Test B flooded paddy test, visual plant response rating 0-100; details: 250 g ai/ha, Flood, applied to paddy water, evaluated after 13 days
Method in brief: (§2)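 Compounds applied to standing paddy water (3 cm above soil, maintained for the test duration) on 2-leaf-stage plants; visual rating vs controls at 13 days, greenhouse.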

[26] = system: sedge, umbrella (small-flower umbrella sedge, Cyperus difformis); test: as above; details: 250 g ai/ha, Flood, applied to paddy water, evaluated after 13 days
Method in brief: as §2

[27] = system: ducksalad (Heteranthera limosa); test: as above; details: 250 g ai/ha, Flood, applied to paddy water, evaluated after 13 days
Method in brief: as §2

[28] = system: barnyardgrass (Echinochloa crusgalli); test: as above; details: 250 g ai/ha, Flood, applied to paddy water, evaluated after 13 days
Method in brief: as §2

[29] = 62 g ai/ha, postemergence, 10 days, 0 = no effect, 100 = complete control
[30] = Postemergence, 16 g ai/ha, greenhouse 10 days, 0 no effect, 100 complete control
[31] = 62 g ai/ha, 0 = no effect, 100 = complete control

COC(=O)C1=CCC(NC(=O)C2(C)CN(c3cc(Cl)cc(Cl)c3)C(=O)O2)C1 (stereo not drawn) [Compound 149]
70: Horseweed plant response rating (0-100) [4, 29] | Wheat plant response rating (0-100) [23, 31]
95: Plant response rating, Sedge, Umbrella (0 to 100 scale, 0 is no effect and 100 is complete control) [26] | Plant response rating, Ducksalad (0 to 100 scale, 0 is no effect and 100 is complete control) [27] | Plant response rating, Barnyardgrass (0 to 100 scale, 0 is no effect and 100 is complete control) [28]
60: Galium plant response rating (0 to 100 scale) [11] | Soybean plant response rating (0 to 100 scale) [13, 30] | Barnyardgrass plant response rating ([14]; 16 g ai/ha, 0 to 100 scale)
100: Barnyardgrass plant response rating (0-100) [1, 29] | Barnyardgrass plant response rating (0 to 100 scale) [1, 30] | Corn plant response rating (0-100) [3, 29] | Corn plant response rating (0 to 100 scale) [3, 30] | Pigweed, Palmer plant response rating (0-100) [20, 31]
0: Ragweed plant response rating ([15]; 16 g ai/ha, 0 to 100 scale) | Corn plant response rating ([16]; 16 g ai/ha, 0 to 100 scale) | Oat, Wild plant response rating ([17]; 16 g ai/ha, 0 to 100 scale) | Kochia plant response rating ([18]; 16 g ai/ha, 0 to 100 scale) | Blackgrass plant response rating ([22]; 16 g ai/ha, 0 to 100 scale) | Blackgrass plant response rating (0-100) [22, 31] | Soybean plant response rating ([24]; 16 g ai/ha, 0 to 100 scale) | Soybean plant response rating (0-100) [24, 31]
50: Ragweed plant response rating (0-100) [2, 29] | Horseweed plant response rating (0 to 100 scale) [4, 30] | Kochia plant response rating (0-100) [18, 31]
30: Oat, Wild plant response rating (0 to 100 scale) [5, 30] | Ragweed plant response rating (0-100) [15, 31] | Corn plant response rating (0-100) [16, 31] | Foxtail, Green plant response rating ([21]; 16 g ai/ha, 0 to 100 scale)
20: Ragweed plant response rating (0 to 100 scale) [2, 30] | Oat, Wild plant response rating (0-100) [17, 31] | Ryegrass, Italian plant response rating ([19]; 16 g ai/ha, 0 to 100 scale) | Wheat plant response rating ([23]; 16 g ai/ha, 0 to 100 scale)
80: Kochia plant response rating (0 to 100 scale) [6, 30] | Ryegrass, Italian plant response rating (0-100) [7, 29] | Ryegrass, Italian plant response rating (0 to 100 scale) [7, 30] | Wheat plant response rating (0 to 100 scale) [12, 30] | Ryegrass, Italian plant response rating (0-100) [19, 31]
90: Oat, Wild plant response rating (0-100) [5, 29] | Kochia plant response rating (0-100) [6, 29] | Pigweed, Palmer plant response rating (0-100) [8, 29] | Pigweed, Palmer plant response rating (0 to 100 scale) [8, 30] | Foxtail, Green plant response rating (0-100) [9, 29] | Foxtail, Green plant response rating (0 to 100 scale) [9, 30] | Blackgrass plant response rating (0-100) [10, 29] | Blackgrass plant response rating (0 to 100 scale) [10, 30] | Wheat plant response rating (0-100) [12, 29] | Soybean plant response rating (0-100) [13, 29] | Barnyardgrass plant response rating (0-100) [14, 31] | Pigweed, Palmer plant response rating ([20]; 16 g ai/ha, 0 to 100 scale) | Foxtail, Green plant response rating (0-100) [21, 31] | Plant response rating, Rice (0 to 100 scale, 0 is no effect and 100 is complete control) [25]

From patent publication US20260285850A1, “SUBSTITUTED OXAZOLIDINONES AND IMIDAZOLINONES AS HERBICIDES” (FMC CORPORATION, priority 2023, published 2026)
